Results taken from patent US9629856B2, “Compositions and methods for the treatment of skin diseases and disorders using antimicrobial peptide sequestering compounds” (Anteis SA, priority 2010, dated 2017).

Tested on: Rosacea patients
Experiment: Clinical study with rosacea patients
Conditions: human, in vivo
Experimental: The following assessments or evaluations were performed before the treatment (Visit 1) and during the treatment period after about 2 weeks (Visit 2), about 4 weeks (Visit 3) and about 8 weeks (Visit 4): Tolerability including burning/stinging/tingling, pruritis, dryness, scaling/peeling and atrophy were evaluated of the face by the investigator (i.e., dermatologist) according to the following scale: 0=none, 1=mild, 2=moderate, 3=severe. Furthermore, any adverse events experienced by subject during the study period, whether related to the treatment or not, were recorded. Assessment of overall skin conditions of the face was performed by the investigator (i.e., dermatologist) according to the following scoring system: [table] Count of total number of inflammatory lesions (papules and pustules) on the face by the investigator (i.e., dermatologist). Evaluation of the severity of both redness/erythema and telangiectasia on the face by the investigator (i.e., dermatologist) according to the following scale: [table] […] Clinical photographs were taken at all visits utilizing standardized conditions for all subjects. […] In case possible, cross-polarized, parallel-polarized and visible light images were acquired along with both blue fluorescence and ultraviolet fluorescence images.

Q: For “Hydroxypropyl Starch Phosphate [Structure XL]”, which immunotoxic effects is on record?
A: The immunotoxic effects was “no evidence of immunotoxic effects”.
